Laboratory results: US20250051338A1, “TYK2 DEGRADERS AND USES THEREOF” (Kymera Therapeutics, Inc., priority 2021, published 2025)

Assays:
Type in all cases: cell-based
[1] = target: T1, TYK2 (Homo sapiens, UniProt P29597); test: TYK2 degradation MSD assay in OCI-LY10 cells; parameters: endogenous in cells; host or cells: EBV-B cells; conditions: 4 to 24 hours incubation, read-out: TYK2 MSD DC50 rating in OCI-LY10
In short: (§1)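 Cells (0.4 million per well) were treated with a 9-point, 1:3 compound series from a top concentration of 1 to 10 μM for 4 to 24 hours at 37° C, then lysed in RIPA with protease/phosphatase inhibitors. Remaining TYK2 was quantified by sandwich MSD immunoassay; DC50 came from four-parameter nonlinear fits.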

[2] = target: T1, TYK2; test: TYK2 degradation MSD assay in EBV-B cells; parameters: endogenous in cells; host or cells: EBV-B cells; conditions: 4 to 24 hours incubation, read-out: TYK2 MSD DC50 rating in EBV-B
In short: as §1

[3] = target: T1, TYK2; test: TYK2 degradation MSD assay in human PBMC cells; parameters: endogenous in cells; host or cells: human PBMC; conditions: 4 to 24 hours incubation, read-out: TYK2 MSD DC50 rating in human PBMC
In short: as §1

T1 sequence (P29597 whole entry): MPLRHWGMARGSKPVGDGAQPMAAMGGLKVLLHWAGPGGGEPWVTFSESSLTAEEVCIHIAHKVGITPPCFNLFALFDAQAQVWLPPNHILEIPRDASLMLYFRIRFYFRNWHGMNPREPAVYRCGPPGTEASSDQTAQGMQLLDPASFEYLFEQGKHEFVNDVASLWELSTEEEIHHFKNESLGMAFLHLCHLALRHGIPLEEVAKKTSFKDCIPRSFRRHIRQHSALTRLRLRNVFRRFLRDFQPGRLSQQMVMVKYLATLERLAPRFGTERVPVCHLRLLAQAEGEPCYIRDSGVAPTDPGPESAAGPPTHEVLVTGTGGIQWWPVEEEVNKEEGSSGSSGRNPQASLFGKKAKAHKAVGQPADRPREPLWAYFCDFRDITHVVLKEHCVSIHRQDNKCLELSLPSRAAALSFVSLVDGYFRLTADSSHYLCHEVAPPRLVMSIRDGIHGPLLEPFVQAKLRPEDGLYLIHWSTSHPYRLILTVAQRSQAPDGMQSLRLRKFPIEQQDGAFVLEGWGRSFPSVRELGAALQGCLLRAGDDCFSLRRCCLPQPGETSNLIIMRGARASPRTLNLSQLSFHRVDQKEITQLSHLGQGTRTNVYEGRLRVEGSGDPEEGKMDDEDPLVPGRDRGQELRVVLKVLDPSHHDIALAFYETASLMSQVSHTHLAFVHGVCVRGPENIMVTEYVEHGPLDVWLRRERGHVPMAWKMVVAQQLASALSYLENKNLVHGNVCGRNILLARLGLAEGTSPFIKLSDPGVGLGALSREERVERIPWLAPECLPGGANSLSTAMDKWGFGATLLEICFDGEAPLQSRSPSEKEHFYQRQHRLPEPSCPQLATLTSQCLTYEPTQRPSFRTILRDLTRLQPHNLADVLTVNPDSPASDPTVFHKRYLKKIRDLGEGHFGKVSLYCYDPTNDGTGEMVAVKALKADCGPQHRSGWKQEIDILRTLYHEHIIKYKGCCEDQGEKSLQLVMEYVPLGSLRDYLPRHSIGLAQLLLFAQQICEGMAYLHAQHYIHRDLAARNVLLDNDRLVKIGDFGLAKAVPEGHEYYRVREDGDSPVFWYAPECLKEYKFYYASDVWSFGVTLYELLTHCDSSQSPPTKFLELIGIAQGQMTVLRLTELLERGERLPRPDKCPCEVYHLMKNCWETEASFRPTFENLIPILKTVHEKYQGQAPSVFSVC

| Structure (SMILES) | DC50 [1] [nM] | DC50 [2] [nM] | DC50 [3] [nM] |
| --- | --- | --- | --- |
| CNC(=O)c1cnc(Nc2ccc(CN3CCC4(CC3)CC(Cc3ccc5c(c3)n(C)c(=O)n5C3CCC(=O)NC3=O)C4)cn2)cc1Nc1cccc(-c2ncc(F)cn2)c1OC (stereo not drawn) [Example K144] | > 100 | < 1 | < 1 |
| CNC(=O)c1cnc(Nc2ccc(CN3CCC(OCC#Cc4ccc5c(c4)n(C)c(=O)n5C4CCC(=O)NC4=O)CC3)cn2)cc1Nc1cccc(-c2ncc(F)cn2)c1OC (stereo not drawn) [Example K708] | > 100 | < 1 | > 100 |
| CNC(=O)c1cnc2c(NC)cc(Nc3cccc(-c4ccc(CN5CCN(c6ccc(-c7ccc8c(c7)n(C)c(=O)n8C7CCC(=O)NC7=O)cc6)CC5)cn4)c3OC)nn12 (stereo not drawn) [Example K527] | 1 to 10 | > 100 | > 100 |
| CNc1cc(N2CCc3c(-c4cc(N5CCN(c6ccc7c(c6)n(C)c(=O)n7C6CCC(=O)NC6=O)CC5)ccn4)cccc32)nn2c(C(=O)C[C@@H]3C[C@@H]3F)cnc12 (stereo partly drawn) [Example K652] | > 100 | > 100 | > 100 |
| CNc1cc(-c2cnn(C3CN(C(=O)NCCCCCCc4ccc5c(c4)n(C)c(=O)n5C4CCC(=O)NC4=O)C3)c2)nn2c(C(=O)N[C@@H]3C[C@@H]3F)cnc12 (stereo partly drawn) [Example K315] | > 100 | > 100 | > 100 |
| CNc1cc(-c2cnn(C3CN(C(=O)NCCCCc4ccc5c(c4)n(C)c(=O)n5C4CCC(=O)NC4=O)C3)c2)nn2c(C(=O)N[C@@H]3C[C@@H]3F)cnc12 (stereo partly drawn) [Example K314] | > 100 | > 100 | > 100 |
| CNC(=O)c1cnc(Nc2ccc(CN(C)CC3CCN(Cc4cccc5c4n(C)c(=O)n5C4CCC(=O)NC4=O)CC3)cn2)cc1Nc1cccc(-c2ncc(F)cn2)c1OC (stereo not drawn) [Example K134] | > 100 | < 1 | < 1 |
| CNC(=O)c1cnc(Nc2ccc(CN(C)C3CCN(c4ccc5c(c4)n(C)c(=O)n5C4CCC(=O)NC4=O)CC3)cn2)cc1Nc1cccc(-c2ncc(F)cn2)c1OC (stereo not drawn) [Example K155] | > 100 | < 1 | < 1 |
| CNC(=O)c1cnc(Nc2ccc(CN3CCC(OCC#Cc4cccc5c4n(C)c(=O)n5C4CCC(=O)NC4=O)CC3)cn2)cc1Nc1cccc(-c2ncc(F)cn2)c1OC (stereo not drawn) [Example K151] | > 100 | < 1 | > 100 |
| [2H]C([2H])([2H])NC(=O)c1nnc(Nc2ccc(C(=O)N(C)C3CCN(c4cccc5c4n(C)c(=O)n5C4CCC(=O)NC4=O)CC3)cn2)cc1Nc1cccc(F)c1OC (stereo not drawn) [Example K710] | > 100 | < 1 | > 100 |
| CNc1cc(Nc2cccn(-c3ccc(C(=O)NCCOCCOCCOCCOCCc4cccc5c4n(C)c(=O)n5C4CCC(=O)NC4=O)cn3)c2=O)nn2c(C(=O)N[C@@H]3C[C@@H]3F)cnc12 (stereo partly drawn) [Example K218] | > 100 | > 100 | 10 to 100 |
| CNc1cc(Nc2cccn(-c3cccc(C(=O)NCCCCCCCCCCc4ccc5c(c4)n(C)c(=O)n5C4CCC(=O)NC4=O)c3)c2=O)nn2c(C(=O)N[C@@H]3C[C@@H]3F)cnc12 (stereo partly drawn) [Example K225] | > 100 | > 100 | 1 to 10 |
| CNC(=O)c1cnc(Nc2ccc(CN3CCN(C(=O)CCc4ccc5c(c4)n(C)c(=O)n5C4CCC(=O)NC4=O)CC3)cn2)cc1Nc1cccc(-c2ncc(F)cn2)c1OC (stereo not drawn) [Example K143] | > 100 | > 100 | < 1 |
| CNC(=O)c1cnc(Nc2ccc(C(=O)NCCCCc3cccc4c3n(C)c(=O)n4C3CCC(=O)NC3=O)cn2)cc1Nc1cccc(-c2ncc(F)cn2)c1OC (stereo not drawn) [Example K114] | < 1 | 1 to 10 | < 1 |
| CNc1cc(Nc2cccn(-c3ccc(C(=O)NCCCCc4cncc(N5CCC[C@H](C(=O)Nc6ccc(=O)n(CC(=O)O)c6)C5)c4)cn3)c2=O)nn2c(C(=O)N[C@@H]3C[C@@H]3F)cnc12 [Example K561] | > 100 | > 100 | > 100 |

Continued, values first:

| DC50 [1] [nM] | DC50 [2] [nM] | DC50 [3] [nM] | Structure (SMILES) |
| --- | --- | --- | --- |
| > 100 | > 100 | < 1 | CNc1cc(-c2cnn(C3CCC(CN4CC5(CCN(c6ccc7c(c6)n(C)c(=O)n7C6CCC(=O)NC6=O)CC5)C4)CC3)c2)nn2c(C(=O)N[C@@H]3C[C@@H]3F)cnc12 (stereo partly drawn) [Example K363] |
| < 1 | > 100 | > 100 | CNc1cc(Nc2cccn(-c3ccc(CN4CCN(c5ccc(-c6ccc7c(c6)n(C)c(=O)n7C6CCC(=O)NC6=O)cc5)CC4)cn3)c2=O)nn2c(C(=O)N[C@@H]3C[C@@H]3F)cnc12 (stereo partly drawn) [Example K495] |
| 1 to 10 | > 100 | > 100 | Cc1cc(Nc2cccc(-c3ccc(CN4CCN(c5ccc(-c6ccc7c(c6)n(C)c(=O)n7C6CCC(=O)NC6=O)cc5)CC4)cn3)c2)nn2c(C(=O)N[C@@H]3C[C@@H]3F)cnc12 (stereo partly drawn) [Example K502] |
| > 100 | > 100 | > 100 | CNc1cc(Nc2cccc(C(=O)NCCCCCCc3ccc4c(c3)n(C)c(=O)n4C3CCC(=O)NC3=O)c2)nn2c(C(=O)N[C@@H]3C[C@@H]3F)cnc12 (stereo partly drawn) [Example K249] |
| < 1 | > 100 | > 100 | CNc1cc(Nc2cccn(-c3ccc(C(=O)N4CCC(CN5CCCC(c6cccc7c6n(C)c(=O)n7C6CCC(=O)NC6=O)C5)CC4)cn3)c2=O)nn2c(C(=O)N[C@@H]3C[C@@H]3F)cnc12 (stereo partly drawn) [Example K451] |
| < 1 | 1 to 10 | > 100 | CNc1cc(Nc2cccc(-c3ccc(CN4CC5(CCN(c6cccc7c6n(C)c(=O)n7C6CCC(=O)NC6=O)CC5)C4)cn3)c2)nn2c(C(=O)N[C@@H]3C[C@@H]3F)cnc12 (stereo partly drawn) [Example K510] |
| > 100 | > 100 | > 100 | CNc1cc(N(C)c2cccc(-c3ccc(CN4CCN(c5ccc(-c6ccc7c(c6)n(C)c(=O)n7C6CCC(=O)NC6=O)cc5)CC4)cn3)c2)nn2c(C(=O)N[C@@H]3C[C@@H]3F)cnc12 (stereo partly drawn) [Example K481] |
| > 100 | > 100 | > 100 | CNc1cc(-c2ccc(CN3CCN(c4ccc(-c5ccc6c(c5)n(C)c(=O)n6C5CCC(=O)NC5=O)cc4)CC3)cc2)nn2c(C(=O)N[C@@H]3C[C@@H]3F)cnc12 (stereo partly drawn) [Example K565] |
| > 100 | > 100 | 10 to 100 | CNc1cc(Nc2cccn(-c3cccc(C(=O)NCCCCCCCCCCc4cccc5c4n(C)c(=O)n5C4CCC(=O)NC4=O)c3)c2=O)nn2c(C(=O)N[C@@H]3C[C@@H]3F)cnc12 (stereo partly drawn) [Example K226] |
| < 1 | > 100 | > 100 | CNc1cc(Nc2cccc(CN3CCC(OC4CC(c5cccc6c5n(C)c(=O)n6C5CCC(=O)NC5=O)C4)CC3)c2)nn2c(C(=O)NC3CC3)cnc12 (stereo not drawn) [Example K590] |
| > 100 | 1 to 10 | > 100 | CNc1cc(Nc2cccn(-c3ccc(C(=O)N4CCC(OCC#Cc5ccc6c(c5)n(C)c(=O)n6C5CCC(=O)NC5=O)CC4)cn3)c2=O)nn2c(C(=O)N[C@@H]3C[C@@H]3F)cnc12 (stereo partly drawn) [Example K394] |
| > 100 | > 100 | > 100 | CNc1cc(-c2ccc(C3CCN(CC4CCN(c5ccc(-c6ccc7c(c6)n(C)c(=O)n7C6CCC(=O)NC6=O)cc5)CC4)CC3)cc2)nn2c(C(=O)N[C@@H]3C[C@@H]3F)cnc12 (stereo partly drawn) [Example K530] |
| > 100 | > 100 | > 100 | CNc1cc(Nc2cccn(-c3ccc(C(=O)C4CCC([C@H]5CCN(c6ccc7c(c6)n(C)c(=O)n7C6CCC(=O)NC6=O)C5)CN4)cn3)c2=O)nn2c(C(=O)N[C@@H]3C[C@@H]3F)cnc12 (stereo partly drawn) [Example K425] |
| 1 to 10 | > 100 | > 100 | CNc1cc(Nc2cccc(-c3ccc(CN4CCN(c5ccc6c(c5)n(C)c(=O)n6C5CCC(=O)NC5=O)CC4)cn3)c2)nn2c(C(=O)N[C@@H]3C[C@@H]3F)cnc12 (stereo partly drawn) [Example K523] |
| > 100 | > 100 | > 100 | Cc1cc(C)cc(Nc2cc(NCCCCCCc3ccc4c(c3)n(C)c(=O)n4C3CCC(=O)NC3=O)c3ncc(C(=O)N[C@@H]4C[C@@H]4F)n3n2)c1 (stereo partly drawn) [Example K401] |
| < 1 | > 100 | > 100 | CNc1cc(N2CCc3c(-c4cc(N5CCN([C@H]6CC[C@H](c7ccc8c(c7)n(C)c(=O)n8C7CCC(=O)NC7=O)CC6)CC5)ccn4)cccc32)nn2c(C(=O)NC3CC3F)cnc12 (stereo partly drawn) [Example K650, N-[(1R,2S)-2-fluorocyclopropyl]-8-(methylamino)-6-[4-(4-{4-[(1r,4r)-4-[1-(2,6-dioxopiperidin-3-yl)-3-methyl-2-oxo-1,3-benzodiazol-5-yl]cyclohexyl]piperazin-1-yl}pyridin-2-yl)-2,3-dihydroindol-1-yl]imidazo[1,2-b]pyridazine-3-carboxamide] |
| < 1 | < 1 | > 100 | CNc1cc(Nc2cccc(-c3ccc(CN4CCN(c5ccc(-c6ccc7c(c6)n(C)c(=O)n7C6CCC(=O)NC6=O)cn5)C(=O)C4)cn3)c2)nn2c(C(=O)N[C@@H]3C[C@@H]3F)cnc12 (stereo partly drawn) [Example K455] |
| 1 to 10 | > 100 | > 100 | CNc1cc(Nc2cccc(-c3ccc(CN4CCN(c5ccc(-c6cccc7c6n(C)c(=O)n7C6CCC(=O)NC6=O)cc5)CC4)cn3)c2OC)nn2c(C(=O)N[C@@H]3C[C@@H]3F)cnc12 (stereo partly drawn) [Example K488] |
